Data: patent US20160089401A1, “USES OF TREHALOSE IN CELL SUSPENSIONS” (Cook General Biotechnology LLC, priority 2014, published 2016)

Columns and labels:
[1] = system: canine uterine regenerative cells (mesenchymal stem cell populations obtained from canine uterine tissue); assay: Clumping of thawed previously-cryopreserved cells in saline bags with candidate anti-clumping agents; assay type: cell-based
Procedure: The cells used in this Example were purified mesenchymal stem cell populations obtained from canine uterine tissue (from passage 5). The cells were frozen in cryovials in 2% DMSO in VetStarch. The frozen cell samples were provided as 2 mL aliquots with a cell density of 10 million cells/mL. Cells from 3 different canine donors were included n the testing, labeled herein as Donor1; Donor2 and Donor3.
Experiments were performed in 50 mL bags commonly used for saline solutions to be administered to the bloodstream of patients. The experimental volume for the prepared cell suspension was between 5-10 mL depending on the run. Chemicals tested for their anti-clumping ability included dextrose, hydroxyethyl starch, and trehalose. Concentrations of these chemicals varied between experiments. Solutions of anti-clumping agents were prepared then injected into the bags. Concentration and volumes were computed so that targeted concentrations of anti-clumping agents were reached once the cells were injected in the bag. Volumes were chosen so that the cells were at one million cells/mL after preparation of the final composition in the bags.
Cryovials containing the cells were thawed in a 37° C. water bath until ice crystals just thawed. Cells were drawn out of the vial through a needle septum of the vial with an 18 gauge needle and slowly added to the bag through a needle septum of the bag so as not to lyse the cells. The vial was then washed with saline and this wash volume was also carefully injected into the bag through the needle septum.

[2] = system: canine uterine regenerative cells (mesenchymal stem cell populations obtained from canine uterine tissue); assay: Post-bag cell viability by trypan blue staining; assay type: cell-based
Procedure: After time in the bag had expired, the cells were carefully removed from the bag with a syringe and 18 gauge needles. This volume was carefully placed in a 50 mL conical flask. It was mixed to ensure even distribution of cells, then mixed 1:1 with trypan blue and counted to determine viability. The volume was then centrifuged at 400 g for 5 minutes, supernatant aspirated, and resuspended in 2mL complete media. 1 mL of this cell suspension was then plated into a T25 flask. 24 hours later, the plates were observed and the condition of the cells noted.

[3] = Donor2 cells, 1 million/mL, trehalose 1.65%
[4] = Donor2 cells, 1 million/mL, trehalose 3.3%
[5] = summary, previously-cryopreserved cells after thawing

OC[C@H]1O[C@H](O[C@H]2O[C@H](CO)[C@@H](O)[C@H](O)[C@H]2O)[C@H](O)[C@@H](O)[C@@H]1O [trehalose, (2R,3S,4S,5R,6R)-2-(hydroxymethyl)-6-[(2R,3R,4S,5S,6R)-3,4,5-trihydroxy-6-(hydroxymethyl)oxan-2-yl]oxyoxane-3,4,5-triol]
clumps after 80 minutes ([1]; Donor1 cells (section 1.7 run), 1 million/mL, trehalose 3.3%): essentially all clumps were very small and barely visible with the exception of one or two slightly larger clumps | time at which some clumping was observed ([1]; Donor1 cells (section 1.7 run), 1 million/mL, trehalose 3.3%, barely visible, very small clumps): 20 min | clumps after 80 minutes ([1]; Donor1 cells, 1 million/mL, trehalose 3.3% in final preparation): no clumps formed | clumps after 80 minutes [1, 3]: a few stringy clumps | time at which small clumps began to form [1, 3]: 20 min | clumps after 80 minutes [1, 4]: only several clumps and they remained small | time at which small clumps began to form [1, 4]: 20 min | clumps after 80 minutes ([1]; Donor3 cells, 1 million/mL, trehalose 3.3%): only several very small clumps and they were still barely visible | time at which clumps began to form ([1]; Donor3 cells, 1 million/mL, trehalose 3.3%, clumps very small and barely visible): 20 min | reduction of cell clumping as compared to saline alone [1, 5]: greatly reduces clumping | size/appearance of clumps present [1, 5]: tiny generally spheroid particles barely visible to the human eye | viability by trypan blue staining ([2]; Donor1 cells, end of clumping experiment, trehalose 3.3%, hydroxyethyl starch 25% in final preparation): 94% | cell viability ([2]; summary, after exposure for an estimated duration of cell infusion): above 90%
